Experimental data taken from ChEMBL document CHEMBL1201862, “PubChem BioAssay data set” (2004).
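Test compounds were applied to cells in 96-well plates for 48 hours at 5 doses. GI50: concentration for 50% inhibition of growth.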 The source made the active and inactive calls. No stated cut-off is given here; in the data, active = GI50 up to about 1.1 µM and inactive = higher.

Tests used:
Test in all cases: DTP human tumour cell line panel, 48 h
SF-295 = system: SF-295
HCT-116 = system: HCT-116
HT-29 = system: HT-29
NCI/ADR-RES = system: NCI/ADR-RES
TK-10 = system: TK-10
OVCAR-4 = system: OVCAR-4
DU-145 = system: DU-145
SF-268 = system: SF-268
SK-OV-3 = system: SK-OV-3
SF-539 = system: SF-539
KM12 = system: KM12
MDA-MB-231 = system: MDA-MB-231
HCT-15 = system: HCT-15
SR = system: SR
EKVX = system: EKVX
786-0 = system: 786-0
SK-MEL-5 = system: SK-MEL-5
MOLT-4 = system: MOLT-4
UACC-62 = system: UACC-62

| SMILES | GI50 (SF-295) | GI50 (HCT-116) | GI50 (HT-29) | GI50 (NCI/ADR-RES) | GI50 (TK-10) | GI50 (OVCAR-4) | GI50 (DU-145) | GI50 (SF-268) | GI50 (SK-OV-3) | GI50 (SF-539) | GI50 (KM12) | GI50 (MDA-MB-231) | GI50 (HCT-15) [µM] | GI50 (SR) | GI50 (EKVX) | GI50 (786-0) | GI50 (SK-MEL-5) | GI50 (MOLT-4) | GI50 (UACC-62) |
| --- | --- | --- | --- | --- | --- | --- | --- | --- | --- | --- | --- | --- | --- | --- | --- | --- | --- | --- | --- |
| CCOC(=O)c1c(C)[n+]([O-])c2cc(Cl)c(Cl)cc2[n+]1[O-] | 29.4 µM (inactive) | 18.9 µM (inactive) | 33.5 µM (inactive) | 23.8 µM (inactive) | 18.1 µM (inactive) | 17.5 µM (inactive) | 16.6 µM (inactive) | 24.5 µM (inactive) | 26.7 µM (inactive) | 26.1 µM (inactive) | 7.89 µM (inactive) | 21.1 µM (inactive) | 14.3 | 8.02 µM (inactive) | 24.1 µM (inactive) | 28.3 µM (inactive) | 16.7 µM (inactive) | 16.2 µM (inactive) | 15.8 µM (inactive) |
| c1ccc2c(c1)-c1nc3ccccc3cc1C2N1CCOCC1 (stereo not drawn) | > 100 µM (inactive) | > 100 µM (inactive) | 92.5 µM (inactive) | 81.3 µM (inactive) | > 100 µM (inactive) | 47.6 µM (inactive) | > 100 µM (inactive) | 61.2 µM (inactive) | > 100 µM (inactive) |  | > 100 µM (inactive) | > 100 µM (inactive) | > 100 | > 100 µM (inactive) | 63.1 µM (inactive) | > 100 µM (inactive) | 82.4 µM (inactive) | 57.9 µM (inactive) | 97.5 µM (inactive) |
| O=C1OCC2=C1C(c1ccc3c(c1)OCO3)c1cc3c(cc1O2)OCO3 (stereo not drawn) | 3.03 µM (inactive) | 0.436 µM (active) | 0.346 µM (active) | 0.255 µM (active) | 5.81 µM (inactive) | 7.94 µM (inactive) | 1.64 µM (inactive) | 1.94 µM (inactive) | 0.776 µM (active) | 0.522 µM (active) |  | 0.813 µM (active) | 0.346 | 0.19 µM (active) | 1.72 µM (inactive) | 0.785 µM (active) | 0.486 µM (active) | 0.374 µM (active) | 0.364 µM (active) |
| CCOC1=NC(O)c2cccn2-c2sccc21 (stereo not drawn) | > 100 µM (inactive) | > 100 µM (inactive) | > 100 µM (inactive) | > 100 µM (inactive) | 82.4 µM (inactive) | > 100 µM (inactive) | > 100 µM (inactive) | > 100 µM (inactive) | 93.3 µM (inactive) | > 100 µM (inactive) | > 100 µM (inactive) | > 100 µM (inactive) | > 100 | 34.2 µM (inactive) |  | > 100 µM (inactive) | 96.4 µM (inactive) | 51.6 µM (inactive) | > 100 µM (inactive) |
| O=C(/C=C1\Nc2ccccc2N\C1=C\C(=O)c1ccc(Cl)cc1)c1ccccc1 | 40.3 µM (inactive) | 38.3 µM (inactive) |  | > 100 µM (inactive) | > 100 µM (inactive) | 31.3 µM (inactive) | > 100 µM (inactive) | > 100 µM (inactive) | 70 µM (inactive) | 35.1 µM (inactive) | 64.4 µM (inactive) | > 100 µM (inactive) | 52.7 | 20.6 µM (inactive) | > 100 µM (inactive) | 26 µM (inactive) | > 100 µM (inactive) | 7.87 µM (inactive) | > 100 µM (inactive) |
| C/C(=C/CNc1ncnc2c1ncn2CCC(=O)O)CO | > 100 µM (inactive) | > 100 µM (inactive) | > 100 µM (inactive) | > 100 µM (inactive) | > 100 µM (inactive) | > 100 µM (inactive) | > 100 µM (inactive) | > 100 µM (inactive) | > 100 µM (inactive) | > 100 µM (inactive) | > 100 µM (inactive) | > 100 µM (inactive) |  | > 100 µM (inactive) | > 100 µM (inactive) | > 100 µM (inactive) | > 100 µM (inactive) | > 100 µM (inactive) | > 100 µM (inactive) |
| NC(=O)C(=CNC(N)=S)C(N)=O | > 100 µM (inactive) | > 100 µM (inactive) | > 100 µM (inactive) | > 100 µM (inactive) |  | > 100 µM (inactive) | > 100 µM (inactive) | > 100 µM (inactive) | > 100 µM (inactive) | > 100 µM (inactive) | > 100 µM (inactive) | > 100 µM (inactive) | > 100 | > 100 µM (inactive) | > 100 µM (inactive) | > 100 µM (inactive) | > 100 µM (inactive) | > 100 µM (inactive) | > 100 µM (inactive) |
| COc1ccc(/C=N/c2c(O)ccc3ccccc23)cc1OC | 63.7 µM (inactive) | 97.9 µM (inactive) | 98.9 µM (inactive) | > 100 µM (inactive) | > 100 µM (inactive) | > 100 µM (inactive) | > 100 µM (inactive) | 19.4 µM (inactive) | > 100 µM (inactive) | > 100 µM (inactive) | > 100 µM (inactive) | 63.7 µM (inactive) | > 100 | > 100 µM (inactive) | > 100 µM (inactive) | > 100 µM (inactive) | 56.2 µM (inactive) |  | 72.6 µM (inactive) |
| CSC(SC)=C(C#N)C(=O)Nc1ccc(Cl)cc1 |  | 29.1 µM (inactive) | 35.6 µM (inactive) | 44.4 µM (inactive) | 23.8 µM (inactive) | 29.9 µM (inactive) | 74.6 µM (inactive) | 61.7 µM (inactive) | > 100 µM (inactive) | 27.7 µM (inactive) | 68.2 µM (inactive) | > 100 µM (inactive) | 33.2 | 38.1 µM (inactive) | 44.7 µM (inactive) | 31.7 µM (inactive) | 51.6 µM (inactive) | 27.7 µM (inactive) | 46 µM (inactive) |
| Cc1ccc2c(c1)Sc1ccc(/N=N/N(C)C)cc1N2C | > 100 µM (inactive) | > 100 µM (inactive) | > 100 µM (inactive) | > 100 µM (inactive) | > 100 µM (inactive) | > 100 µM (inactive) | > 100 µM (inactive) | > 100 µM (inactive) | > 100 µM (inactive) |  | 48.8 µM (inactive) | > 100 µM (inactive) | > 100 | 52.8 µM (inactive) | > 100 µM (inactive) | > 100 µM (inactive) | 96.2 µM (inactive) | 57.7 µM (inactive) | > 100 µM (inactive) |
| CCOC(=O)c1sc(N)nc1N1CCCC1 | > 100 µM (inactive) | > 100 µM (inactive) | > 100 µM (inactive) | > 100 µM (inactive) | > 100 µM (inactive) | > 100 µM (inactive) | > 100 µM (inactive) |  | > 100 µM (inactive) | > 100 µM (inactive) | > 100 µM (inactive) | > 100 µM (inactive) | > 100 | > 100 µM (inactive) | > 100 µM (inactive) | > 100 µM (inactive) | > 100 µM (inactive) | > 100 µM (inactive) | > 100 µM (inactive) |
| CN(/N=C/c1ccc(C(=O)O)cc1)C1=NCCCCN1 | > 100 µM (inactive) | > 100 µM (inactive) | > 100 µM (inactive) | > 100 µM (inactive) |  | > 100 µM (inactive) | > 100 µM (inactive) | > 100 µM (inactive) | > 100 µM (inactive) | > 100 µM (inactive) | > 100 µM (inactive) | > 100 µM (inactive) | > 100 | > 100 µM (inactive) | > 100 µM (inactive) | > 100 µM (inactive) | > 100 µM (inactive) | > 100 µM (inactive) | > 100 µM (inactive) |
| O=[N+]([O-])c1ccc(/C=C(/c2ccc([N+](=O)[O-])o2)S(=O)(=O)c2ccccc2)cc1 | > 100 µM (inactive) | 30.9 µM (inactive) | 41.1 µM (inactive) | 47.5 µM (inactive) | > 100 µM (inactive) | 57 µM (inactive) | 35.5 µM (inactive) | 95.9 µM (inactive) | > 100 µM (inactive) | 33.7 µM (inactive) | 41.1 µM (inactive) | 14.3 µM (inactive) | 26.9 | 16.4 µM (inactive) |  | > 100 µM (inactive) | 13.9 µM (inactive) | 16.8 µM (inactive) | 22.2 µM (inactive) |
| O=[N+]([O-])c1ccc(/N=N\c2c(O)c(S(=O)(=O)O)cc3cc(S(=O)(=O)O)ccc23)cc1 | > 100 µM (inactive) | > 100 µM (inactive) | > 100 µM (inactive) | > 100 µM (inactive) | > 100 µM (inactive) | > 100 µM (inactive) | > 100 µM (inactive) |  | > 100 µM (inactive) | > 100 µM (inactive) |  | > 100 µM (inactive) | > 100 | > 100 µM (inactive) | > 100 µM (inactive) | > 100 µM (inactive) | > 100 µM (inactive) | > 100 µM (inactive) | > 100 µM (inactive) |
| COC(=O)OC[C@H]1O[C@@H](n2cc(C)c(=O)[nH]c2=O)CC1OC(=O)OC (stereo partly drawn) | > 100 µM (inactive) |  | > 100 µM (inactive) | > 100 µM (inactive) | > 100 µM (inactive) | > 100 µM (inactive) | > 100 µM (inactive) | > 100 µM (inactive) | > 100 µM (inactive) | > 100 µM (inactive) | > 100 µM (inactive) | > 100 µM (inactive) | > 100 | 61.7 µM (inactive) | > 100 µM (inactive) | > 100 µM (inactive) | > 100 µM (inactive) | > 100 µM (inactive) | > 100 µM (inactive) |
| Nc1ccc(-c2nc3ccc(F)cc3s2)cc1Cl | > 47.1 µM (inactive) |  | 52.7 µM (inactive) | > 100 µM (inactive) | < 0.01 µM (active) | 0.0174 µM (active) | > 100 µM (inactive) | 35.3 µM (inactive) | > 100 µM (inactive) | 53.5 µM (inactive) | > 100 µM (inactive) | > 55.3 µM (inactive) | > 100 | > 100 µM (inactive) | > 61.9 µM (inactive) | > 61.1 µM (inactive) | > 100 µM (inactive) | > 20.4 µM (inactive) | > 69.8 µM (inactive) |
